In US20230407243A1, “GENETIC PLATFORM TO INVESTIGATE THE FUNCTIONS OF BACTERIAL DRUG EFFLUX PUMPS” (priority 2022, published 2023):
Values joined by “and” are separate entries in the source; they are usually repeats but may differ in a detail not shown here. Equal values may be shown once. Read-outs that look alike come from different tables or passages of the source.

What was measured:
Type in all cases: cell-based, Escherichia coli
[1] = test system: EKO-35 porinated strain expressing acrB; experiment: Checkerboard synergy (FICI), porinated strain; conditions: EKO-35 acrB Pore
Description: (§1) Synergy measurement using checkerboard analysis was performed in 96-well microtiter plates using the microdilution broth method, according to CLSI guidelines (Patel J. B., 2015). The cell inocula were prepared using the colony resuspension method. The minimum inhibitory concentrations (MICs) were defined as the lowest concentration that provided no growth, as determined by measurement of the OD600nm using a Synergy H1 microplate reader (BioTek). Susceptibility testing was performed in MHB II with a final volume of 100 μL. PAI3N (Bachem Americas) was solubilized in MHB II. […] Solvent controls were included in each plate.
(§2) The Fractional Inhibitory Concentration Index (FICI) was used to assess the synergy of PAI3N in combination with different antibiotics. The FICI represents the ΣFIC of each drug. The FICI for each drug was calculated using the following formula: FICI=FICA+FICB=(CA/MICA)+(CB/MICB). Where MICA and MICB are the MICs of drugs A (PAI3N/NMP) and B (antibiotic) alone, and CA and CB are the MICs of the drugs in combination. The effects of PAβN or NMP in combination with antibiotics were classified as: synergistic (FICI<0.5), additive (FICI>0.5-1.0), indifferent (FICI>1.0-2.0), and antagonistic (FICI>2.0). Fold increases in resistance provided by efflux pumps were calculated by dividing the MIC values of strains expressing efflux pumps by the MIC value of EKO-35.

[2] = test system: EKO-35 porinated strain expressing acrD; experiment: Checkerboard synergy (FICI), porinated strain; conditions: EKO-35 acrD Pore; NMP alone, one value per checkerboard
Description: as §1, §2

[3] = test system: EKO-35 porinated strain expressing acrF (AcrEF); experiment: Checkerboard synergy (FICI), porinated strain; conditions: EKO-35 acrEF Pore; with Fusidic Acid
Description: as §1, §2

[4] = test system: wild-type K-12-Pore; experiment: Checkerboard synergy (FICI), porinated strain; conditions: K-12 Pore
Description: as §1, §2

[5] = test system: EKO-35-Pore expressing the P. aeruginosa pump mexCD; experiment: Checkerboard synergy (FICI), porinated strain; conditions: EKO-35 mexCD Pore; with Erythromycin
Description: as §1, §2

[6] = test system: EKO-35-Pore acrBD408A (functionally inactive AcrB variant); experiment: Checkerboard synergy (FICI), porinated strain; conditions: EKO-35 acrBD408A Pore; with Ciprofloxacin
Description: as §1, §2

[7] = test system: EKO-35-Pore strains producing other efflux pumps; experiment: Checkerboard synergy (FICI), porinated strain; conditions: EKO-35 mdtEF Pore; NMP alone, one value per checkerboard
Description: as §1, §2

[8] = test system: EKO-35-Pore; experiment: Checkerboard synergy (FICI), porinated strain; conditions: EKO-35 Pore; with Ethidium Bromide
Description: as §1, §2

[9] = test system: ΔtolC; conditions: ΔtolC
Description: as §1, §2

[10] = test system: ΔtolC-Pore
Description: as §1, §2

[11] = test system: EKO-35
Description: as §1, §2

[12] = test system: EKO-35 acrBD408A; conditions: EKO-35 acrBD408A
Description: as §1, §2

[13] = test system: wild-type E. coli K-12; conditions: K-12
Description: as §1, §2

[14] = test system: EKO-35 strains producing different efflux pumps (EKO-35 araC::X); experiment: Checkerboard synergy (FICI) of PAβN or NMP with antibiotics
Description: as §1, §2

c1ccc2c(CN3CCNCC3)cccc2c1 [NMP, 1-(1-naphthylmethyl)-piperazine]
64 µg/mL: NMP MICa Combined ([1]; with Linezolid) | NMP MICa Combined [3] | NMP MICa Combined ([4]; with Linezolid) | NMP MICa Combined [5] | NMP MICa Combined ([12]; with Ciprofloxacin) | NMP MICa Combined ([13]; with Ethidium Bromide) | NMP MICa Combined ([13]; with Oxacillin) | NMP MICa Combined ([14]; EKO-35 acrB, with Linezolid) | NMP MICa Combined ([14]; EKO-35 acrEF, with Ciprofloxacin) | NMP MICa Combined ([14]; EKO-35 acrEF, with Oxacillin) | NMP MICa Combined ([14]; EKO-35 mdtEF, with Erythromycin)
256 µg/mL: NMP MICa Alone [2] | NMP MICa Alone [7] | NMP MICa Combined ([9]; with Fusidic Acid) | NMP MICa Combined ([10]; ΔtolC Pore, with Erythromycin) | NMP MICa Combined ([10]; ΔtolC Pore, with Linezolid) | NMP MICa Combined ([10]; δtolC Pore, with Ciprofloxacin) | NMP MICa Combined ([11]; EKO-35, with Erythromycin) | NMP MICa Combined ([11]; EKO-35, with Fusidic Acid) | NMP MICa Combined ([11]; EKO-35, with Oxacillin) | NMP MICa Combined ([13]; with Fusidic Acid)
128 µg/mL: NMP MICa Combined ([9]; with Erythromycin) | NMP MICa Combined ([10]; ΔtolC Pore, with Ethidium Bromide) | NMP MICa Combined ([10]; δtolC Pore, with Fusidic Acid) | NMP MICa Combined ([13]; with Ciprofloxacin) | NMP MICa Combined ([13]; with Erythromycin) | NMP MICa Combined ([13]; with Linezolid)
4 µg/mL: NMP MICa Combined [6] | NMP MICa Combined [8]
8 µg/mL: NMP MICa Combined ([4]; with Oxacillin) | NMP MICa Combined ([9]; with Oxacillin) | NMP MICa Combined ([12]; with Linezolid) | NMP MICa Combined ([14]; EKO-35 acrB, with Erythromycin)
comparable to the wild-type strain: susceptibility to the efflux pump inhibitor alone, efflux-deficient strains vs wild-type ([11]; efflux-deficient strains EKO-35, EKO-35 acrBD408A, ΔtolC)
16 µg/mL: NMP MICa Combined ([10]; δtolC Pore, with Oxacillin) | NMP MICa Combined ([11]; EKO-35, with Linezolid) | NMP MICa Combined ([14]; EKO-35 mexCD, with Erythromycin)
32 µg/mL: NMP MICa Combined ([1]; with Ethidium Bromide) | NMP MICa Combined ([9]; with Ethidium Bromide)
512 µg/mL and 1024 µg/mL: NMP MICa Alone ([11]; EKO-35, NMP alone, one value per checkerboard)
512 µg/mL: NMP MICa Combined ([9]; with Ciprofloxacin) | NMP MICa Combined ([9]; with Linezolid) | NMP MICa Alone ([10]; ΔtolC Pore, NMP alone, one value per checkerboard) | NMP MICa Combined ([11]; EKO-35, with Ciprofloxacin) | NMP MICa Combined ([11]; EKO-35, with Ethidium Bromide)
1024 µg/mL: NMP MICa Combined ([12]; with Oxacillin)
